Measured values reported in publication PMC6105804, “In Vitro and In Vivo Evaluation of APX001A/APX001 and Other Gwt1 Inhibitors against Cryptococcus” (Antimicrobial Agents and Chemotherapy, 2018).
In brackets after ≈: the same amount, converted by molar mass. Like-named read-outs stand apart in the source and are kept apart here.

Legend:
C. gattii = assay: Broth microdilution susceptibility testing (CLSI M27-A3); assay type: cell-based; settings: Cryptococcus gattii
In short: (§1)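 CLSI broth microdilution (M27-A3 yeasts, M38-A2 molds), final 2 to 0.002 µg/ml, 35 °C for 40-48 h (C. albicans, A. fumigatus) or 72 h (C. neoformans). MIC for yeasts at 50% growth reduction versus DMSO control. A. fumigatus endpoint is MEC, lowest concentration shortening hyphae.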

A. fumigatus MYA3626 = assay: Broth microdilution susceptibility testing for molds (CLSI M38-A2); assay type: cell-based; settings: Aspergillus fumigatus, MYA3626; read-out: MIC or MEC for A. fumigatus MYA3626
In short: as §1

C. neoformans [1] = assay: Broth microdilution susceptibility testing (CLSI M27-A3); assay type: cell-based, Cryptococcus neoformans; settings: Cryptococcus neoformans
In short: as §1

C. albicans 90028 = assay: as above; assay type: cell-based, Candida albicans; settings: Candida albicans, 90028; read-out: MIC, C. albicans 90028
In short: as §1

[2] = test system: FLC-susceptible and FLC-nonsusceptible/resistant strains of C. neoformans and C. gattii; assay: Broth microdilution, summary over the 18-strain Cryptococcus collection; assay type: cell-based, Cryptococcus neoformans and Cryptococcus gattii; settings: 18 strains of C. neoformans and C. gattii; for MIC: read-out: Geometric mean MIC
In short: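 CLSI M27-A3 broth microdilution was run with final drug concentrations of 2 to 0.002 μg/ml from DMSO dilutions, incubated at 35°C for 72 h for C. neoformans. MIC was the lowest concentration giving 50% growth reduction versus the no-drug control, read with a mirror.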

C. neoformans [3] = test system: C. neoformans; set-up: method as in PMID 23740727; settings: 46 strains of C. neoformans, global study; cited from earlier work
[4] = Single-dose mouse pharmacokinetics of prodrugs with or without ABT; assay type: in vivo; settings: for AUC: male, CD-1, mouse, plasma, 26 mg/kg
Description: The area under the curve (AUC) was calculated from time zero to the time of the last measurable concentration. The active metabolite concentrations in plasma (APX001A, APX2039, APX2020, and APX2041) were determined by liquid chromatography-tandem mass spectrometry. PK parameters were determined using Phoenix WinNonlin (v7.0) software and a noncompartmental model.

[5] = test system: Candida tropicalis strains; set-up: method as in ref 24 = [24]; 24. Watanabe NA , Horii T , Miyazaki M , Hata K 2011 In vitro activity of E1210 and in vivo activity of E1211, a water-soluble prodrug of E1210, in combination with other antifungals, abstr F1-1378 .; settings: cited from earlier work
strains of C. albicans = test system: strains of C. albicans; set-up: method as in ref 24 = [24]; 24. Watanabe NA , Horii T , Miyazaki M , Hata K 2011 In vitro activity of E1210 and in vivo activity of E1211, a water-soluble prodrug of E1210, in combination with other antifungals, abstr F1-1378 .; settings: cited from earlier work
PIGW protein = test system: PIGW protein; set-up: method as in PMID 22143530; settings: closest mammalian ortholog of fungal Gwt1; cited from earlier work
[6] = mouse, in vivo; cited from earlier work
[7] = C. gattii isolate MYA-4093, read-out: MIC
[8] = C. gattii isolate MYA-4094, read-out: MIC
[9] = C. gattii isolate MYA-4560 (first listing, r17), read-out: MIC
[10] = C. gattii isolate MYA-4560 (second listing, r21), read-out: MIC
[11] = C. gattii isolate MYA-4561, read-out: MIC
[12] = C. gattii isolate MYA-4562, read-out: MIC
[13] = C. gattii isolate MYA-4563, read-out: MIC
[14] = C. gattii isolate MYA-4877, read-out: MIC
[15] = C. gattii isolate RSA-MW-3615 (FLC resistant), read-out: MIC
[16] = Table 1, 50% growth inhibition for FLC, caspofungin and APX compounds, 100% for AMB, read-out: MIC, C. gattii WM276
[17] = 72 h, Table 1, 50% growth inhibition for FLC, caspofungin and APX compounds, 100% for AMB, 72 h, read-out: MIC, C. neoformans H99
[18] = C. neoformans isolate 14116, read-out: MIC
[19] = C. neoformans isolate 76484, read-out: MIC
[20] = C. neoformans isolate DUMC 118.00 (FLC resistant), read-out: MIC
[21] = C. neoformans isolate DUMC 158.03 (FLC resistant), read-out: MIC
[22] = C. neoformans isolate MYA-4564, read-out: MIC
[23] = C. neoformans isolate MYA-4565, read-out: MIC
[24] = C. neoformans isolate MYA-4566, read-out: MIC
[25] = C. neoformans isolate MYA-4567, read-out: MIC
[26] = Table 2, C. neoformans isolate H99, read-out: MIC

Row | SMILES | MIC (C. gattii; [7]) [µg/mL] | MIC (C. gattii; [8]) [µg/mL] | MIC (C. gattii; [9]) [µg/mL] | MIC (C. gattii; [10]) [µg/mL] | MIC (C. gattii; [11]) [µg/mL] | MIC (C. gattii; [12]) [µg/mL] | MIC (C. gattii; [13]) [µg/mL] | MIC (C. gattii; [14]) [µg/mL] | MIC (C. gattii; [15]) [µg/mL] | MIC (C. gattii; [16]) [µg/mL] | MIC (A. fumigatus MYA3626) [µg/mL] | MIC (C. neoformans [1]; [17]) [µg/mL] | MIC (C. neoformans [1]; [18]) [µg/mL] | MIC (C. neoformans [1]; [19]) [µg/mL] | MIC (C. neoformans [1]; [20]) [µg/mL] | MIC (C. neoformans [1]; [21]) [µg/mL] | MIC (C. neoformans [1]; [22]) [µg/mL] | MIC (C. neoformans [1]; [23]) [µg/mL] | MIC (C. neoformans [1]; [24]) [µg/mL] | MIC (C. neoformans [1]; [25]) [µg/mL] | other results
1 | OC(Cn1cncn1)(Cn1cncn1)c1ccc(F)cc1F [FLC, fluconazole, reference compound] | 2 | 2 | 1 | 1 | 4 | 2 | 4 | 4 | 64 | 1 | > 16 | 2 | 4 | 4 | 64 | 32 | 4 | 1 | 2 | 1 | MIC (C. neoformans [1]; [26]): 1 µg/mL; MIC (C. albicans 90028): 0.5 µg/mL; MIC90 [2]: 64 µg/mL; MIC [2]: 3.56 µg/mL; MIC90 (C. neoformans [3]): 4 µg/mL (≈ 13.1 µM)
2 | Nc1ncccc1-c1cc(Cc2ccc(COc3ccccn3)cc2)no1 [APX001A] | 0.5 | 0.25 | 0.25 | 0.25 | 0.5 | 0.25 | 0.5 | 0.25 | 0.125 | 0.125 | 0.016 | 0.25 | 0.125 | 0.125 | 0.25 | 0.25 | 0.125 | 0.5 | 0.25 | 0.25 | MIC (C. neoformans [1]; [26]): 0.125 µg/mL; MIC (C. albicans 90028): 0.008 µg/mL; MIC90 [2]: 0.5 µg/mL; MIC [2]: 0.241 µg/mL; Ratio of AUC with ABT/AUC without ABT, i.p. dosing ([4]; 26 mg/kg prodrug): 5.6; Ratio of AUC with ABT/AUC without ABT, p.o. dosing ([4]; 26 mg/kg prodrug): 15.0; AUC ([4]; intraperitoneal, AUC of analyte after 26 mg/kg prodrug, 100 mg/kg ABT orally 2 h before, read-out: Avg AUC resulting from 26-mg/kg dose, i.p. dosing + ABT): 24300 ± 17700 ng·h/mL; AUC ([4]; ip, AUC of analyte after 26 mg/kg of the corresponding prodrug, male CD-1 mice, no ABT, read-out: Avg AUC resulting from 26-mg/kg dose, i.p. dosing): 4360 ± 110 ng·h/mL; AUC ([4]; po, AUC of analyte after 26 mg/kg prodrug, 100 mg/kg ABT orally 2 h before, read-out: Avg AUC resulting from 26-mg/kg dose, p.o. dosing + ABT): 41500 ± 8090 ng·h/mL; AUC ([4]; po, AUC of analyte in plasma after 26 mg/kg of the corresponding prodrug, male CD-1 mice, no ABT, read-out: Avg AUC resulting from 26-mg/kg dose, p.o. dosing): 2760 ± 230 ng·h/mL; strains with synergy with FLC [5]: 9 of 10; strains with synergy with FLC (strains of C. albicans): 2 of 20; sensitivity of PIGW protein to inhibition (PIGW protein): not sensitive to inhibition; half-life in mice [6]: 1.40 to 2.75 h
